Data as given in patent US10500198B2, “Bis-benzylidine piperidone proteasome inhibitor with anticancer activity” (The Johns Hopkins University, priority 2013, dated 2019).

Key:
cancer cells = assay: Antiproliferative activity against cancer cells (design rationale); type: cell-based
Text: We used Chloro and Nitro functional groups as substituent's on the aromatic ring due to their greater electron withdrawing effect at ortho (or) para (or) meta (or) both positions along with different amino acid linkages on bis-benzylidine piperidone moiety. Amino acids were chosen based in their physical characteristics like very hydrophobic (phenylalanine), strongly basic and hydrophilic (lysine), basic and hydrophilic (histidine) and amphiphilic (glycine). Commercially available Fmoc and Boc protected amino acids were used in the synthesis, and they were evaluated for their antiproliferatory activity against cancer cells.
Next we synthesized another set of compounds by converting free amine functionality to its Acetate (Ac), Acrolyl (Acr) and Benzoyl […] analogs as these units are part of many anticancer drugs because of their smaller size and feasibility to form inter molecular hydrogen bonds with proteins.
In the RA195 molecule two amino functionalities of lysine can provide more flexibility to make better analogs.

[1] = system: TNFα-induced NFκB activation in 293 cells; assay: NFκB/FL reporter assay; type: cell-based; conditions: TNFα 10 ng/ml, 7 h
Procedure: 293 cells transiently transfected with either NFκB/FL (firefly luciferase reporter construct under control of an NFκB-driven promoter) or control CMV promoter-driven FL reporter construct were treated with compounds and TNFα (10 ng/ml) for 7 h. Upon the addition of luciferin, bioluminescence was measured in cell lysates using a luminometer. Results can be seen in FIG. 20.
293 cells transiently transfected with either NFκB/FL or control FL reporter genes were treated with compounds and TNFα (10 ng/ml) for 7 h. Upon the addition of luciferin, bioluminescence was measured in cell lysates using a luminometer.

[2] = system: polyubiquitinated proteins, p53 and p21 in HeLa cells; assay: Immunoblot of HeLa cell lysates; type: cell-based, human
Procedure: FIGS. 1 A-D show percent cell viability of RPMI-8226, ANBL6, and their respective in vitro selected bortezomib-resistant cell lines RPMI-8226-V10R and ANBL6-V10R as a function of 48 hr treatment with the indicated compounds. FIGS. 1 E-H show percent cell viability of indicated MM cell lines as a function of 48 hr treatment with the indicated compounds. […] Actin was used as a loading control. […] In FIG. 9C-E, purified 20S proteasomes were treated for 30 min with or without compounds (1 μM) prior to the addition of the specific fluorogenic substrate for chymotryptic (9C), tryptic (9D) or PGPH (9E) hydrolytic proteasome capacities. Mean±SD fluorescence associated with AMC released from the substrate was measured at 45 min. […] DMSO was added to all samples to a final concentration of 0.1% (upper panel). The effect of DMSO is highlighted by including ubiquitin—AMC (0.5 μM) hydrolysis with 2 nM UCH37 lacking DMSO (orange, bottom panel). In FIG. 9H, purified 19S RP (500 nM) in buffer was treated with corresponding compounds 30 min at 37° C. and AMC cleavage was measured with a fluorometer for 20 min. Ubal was used as a positive control.
Total cellular protein (10-20 μg) from each sample was subjected to SDS-PAGE, transferred to PVDF membranes and analyzed by Western blot. […]

purified 20S proteasomes = purified 20S proteasomes (Homo sapiens, UniProt P28072+P28074+Q99436); assay: 20S proteolytic activity assay; type: biochemical; conditions: 1 μM; for chymotryptic activity of the 20S proteasome (Suc-LLVY-AMC): 30 min
Procedure: Actin was used as a loading control. […] In FIG. 9C-E, purified 20S proteasomes were treated for 30 min with or without compounds (1 μM) prior to the addition of the specific fluorogenic substrate for chymotryptic (9C), tryptic (9D) or PGPH (9E) hydrolytic proteasome capacities. […] DMSO was added to all samples to a final concentration of 0.1% (upper panel). The effect of DMSO is highlighted by including ubiquitin—AMC (0.5 μM) hydrolysis with 2 nM UCH37 lacking DMSO (orange, bottom panel). In FIG. 9H, purified 19S RP (500 nM) in buffer was treated with corresponding compounds 30 min at 37° C. and AMC cleavage was measured with a fluorometer for 20 min. Ubal was used as a positive control.
Release of free AMC by the enzyme reaction was determined by measuring its fluorescence at 380 nm (excitation) and 440 nm (emission). The graphs shown are representative of at least three independent determinations and each data point is the mean of ±SD of triplicate determinations.
20S proteasome cleaves the chymotryptic substrate and releases fluorescent AMC.

Row | SMILES | antiproliferative potency among analogs (cancer cells) | TNFα-induced NFκB activation [1] | levels of K48-linked polyubiquitinated proteins ([2]; 4 hr) | chymotryptic activity of the 20S proteasome (Suc-LLVY-AMC) (purified 20S proteasomes) | CP chymotryptic, tryptic, and PGPH activities (purified 20S proteasomes; 30 min pre-treatment) | levels of p53 and p21 proteins ([2]; 1 μM, 12 h) | poly-ubiquitinated (Poly UB) proteins ([2]; 1 μM, 12 h)
1 | Cl.N[C@@H](Cc1ccccc1)C(=O)N1CC(=Cc2ccc(Cl)c(Cl)c2)C(=O)C(=Cc2ccc(Cl)c(Cl)c2)C1 [RA190, 3,5-bis(3,4-dichlorobenzylidene)-1-(S-2-amino-3-phenyl)-piperidin-4-one-HCl salt] | higher potency | Inhibits TNFα-Induced NFκB Activation | dramatically increased | do not | does not inhibit |  | 
2 | Cl.NCCCC[C@H](NC(=O)OCC1c2ccccc2-c2ccccc21)C(=O)N1C/C(=C\c2ccc(Cl)c(Cl)c2)C(=O)/C(=C/c2ccc(Cl)c(Cl)c2)C1 [RA195] | higher potency | inhibited TNFα-induced NFκB activation |  | do not |  | elevated the levels of p53 and p21 proteins | caused the accumulation of poly-ubiqutinated (Poly UB) proteins
